For 26 molecules, IC50 results are on record in patent publication US20210101881A1 (Ancureall Pharmaceutical (Shanghai) Co., Ltd., priority 2018, published 2021).

For the assay, the system named is MOLM13 cells. Kind of assay: Growth inhibition of CDK9-positive cell line MOLM13 in vitro (CCK8/MTT assay). The note with it: Homo sapiens, MOLM-13; MOLM13 cells, cultured 3 to 6 days, CCK8; read-out: IC50 of the compound for inhibiting cell growth, MOLM13 cells. In kind it is cell-based, human. Here is the method:
1. MOLM13 cell line and cell culture MOLM13 is a CDK9-positive human acute myeloid leukemia cell line from DMSZ. Suspension culture was carried out in RPMI1640 (Gibco) medium with 10% fetal bovine serum (Gibco), 1% penicillin-streptomycin and 2 mM glutamine.
Suspended MOLM-13 cells in logarithmic growth phase were collected by centrifugation (1700 rpm, 3 minutes), the supernatant was discarded, and the cells were counted. A solution with a cell concentration of 2×10^5 cells per milliliter was formulated and inoculated in a 96-well plate (Corning) with 100 microliters per well. The plate was incubated at 37° C., 5% CO2 overnight. On the next day, the test compound was added to the cultured cells in two parallel wells. […]
The present compound and the control compounds were respectively dissolved in DMSO (Sigma).
When the solvent control well became dark yellow, the OD450 nm absorption value was measured, and the cell growth rate was calculated according to the following formula. Cell growth rate %=100*(T−T0)/(C−T0), wherein T=the optical density value of the drug-treated well—the optical density value of the blank control well, T0=the optical density value of the well before drug treatment—the optical density value of the blank control well, C=the optical density value of the solvent control well—the optical density value of the blank control well. […] The assay was repeated three times, and the data was subjected to a biological statistical analysis.

As to `COc1cc(Nc2ncc(C)c(-n3cc(C(N)=O)c4ccccc43)n2)ccc1N(C)CCN1CCCC1` [Compound 100, 1-(2-{3-methoxy-4-[methyl-(2-pyrrolidin-1-yl-ethyl)-amino]-phenylamino}-5-methyl-pyrimidin-4-yl)-1H-indole-3-carboxamide], the IC50 (commonly the concentration needed to halve the response being measured) was in the range of 0.001 to 0.01 µM.

On to `CC(=O)N1CCN(c2ccc(Nc3nccc(-n4cc(C(N)=O)c5ccccc54)n3)cc2F)CC1` [Compound 66, 1-{2-[4-(4-acetyl-piperazin-1-yl)-3-fluoro-phenylamino]-pyrimidin-4-yl}-1H-indole-3-carboxamide], for which the IC50 is 0.01 to 0.1 µM.

Take `Cc1ccc(Nc2ncc(Cl)c(-n3cc(C(N)=O)c4ccccc43)n2)cc1N1CCN(C)CC1` [Compound 121, 1-{5-chloro-2-[4-methyl-3-(4-methyl-piperazin-1-yl)-phenylamino]-pyrimidin-4-yl}-1H-indole-3-carboxamide]: the IC50 was in the range of 0.01 to 0.1 µM.

Turning to `CN(CCN1CCCC1)c1ccc(Nc2nccc(-n3cc(C(N)=O)c4ccccc43)n2)cc1` [Compound 90, 1-(2-{4-[methyl-(2-pyrrolidin-1-ylethyl)-amino]-phenylamino}-pyrimidin-4-yl)-1H-indole-3-carboxamide], the IC50 lay in the range of 0.001 to 0.01 µM.

With `CNC(=O)c1cn(-c2ccnc(Nc3ccc(C4CCNCC4)cc3)n2)c2ccccc12` [Compound 105, 1-[2-(4-piperidin-4-yl-phenylamino)-pyrimidin-4-yl]-1H-indole-3-carboxmethylamide], the IC50 fell in the range of 0.01 to 0.1 µM.

With `COc1cc(F)c([N+](=O)[O-])cc1Nc1nccc(-n2cc(C(N)=O)c3ccccc32)n1` [Compound 7, 1-[2-(4-fluoro-2-methoxy-5-nitro-phenylamino)-pyrimidin-4-yl]-1H-indole-3-carboxamide], the IC50 was in the range of 0.01 to 0.1 µM.

On to `CCN1CCN(c2ccc(Nc3ncc(Cl)c(-n4cc(C(N)=O)c5ccccc54)n3)cc2C)CC1` [Compound 58, 1-{5-chloro-2-[4-(4-ethyl-piperazin-1-yl)-3-methyl-phenylamino]-pyrimidin-4-yl}-1H-indole-3-carboxamide], for which the half-inhibitory concentration (IC50) was less than 0.001 µM.

`CNC(=O)c1cn(-c2ccnc(Nc3cccc(N4CCNCC4)c3)n2)c2ccccc12` [Compound 107, 1-[2-(3-piperazin-1-yl-phenylamino)-pyrimidin-4-yl]-1H-indole-3-carboxmethylamide]: the IC50 lay within 0.01 to 0.1 µM.

Consider `NC(=O)c1cn(-c2ccnc(Nc3ccc(C(F)(F)F)c(Cl)c3)n2)c2ccccc12` [Compound 2, 1-[2-(3-chloro-4-trifluoromethyl-phenylamino)-pyrimidin-4-yl]-1H-indole-3-carboxamide], for which the IC50 is more than 1 µM.

In the case of `NC(=O)c1cn(-c2ccnc(Nc3ccc(N4CCNCC4)cc3)n2)c2cc(F)ccc12` [Compound 30, 6-fluoro-1-[2-(4-piperazin-1-yl-phenylamino)-pyrimidin-4-yl]-1H-indole-3-carboxamide], the IC50 was in the range of 0.001 to 0.01 µM.

As to `Cc1cc(Nc2nccc(-n3cc(C(N)=O)c4cccnc43)n2)ccc1N1CCN(C)CC1` [Compound 136], the IC50 lay within 0.1 to 1 µM.

Regarding `CN(CCN1CCCC1)c1ccc(Nc2nccc(-n3cc(C(N)=O)c4ccccc43)n2)cc1F` [Compound 92, 1-(2-{3-fluoro-4-[methyl-(2-pyrrolidin-1-yl-ethyl)-amino]-phenylamino}-pyrimidin-4-yl)-1H-indole-3-carboxamide], the IC50 was 0.1 to 1 µM.

For `COc1cc(Nc2ncc(F)c(-n3cc(C(N)=O)c4ccccc43)n2)ccc1N(C)CCN1CCCC1` [Compound 98, 1-(5-fluoro-2-{3-methoxy-4-[methyl-(2-pyrrolidin-1-yl-ethyl)-amino]-phenylamino}-pyrimidin-4-yl)-1H-indole-3-carboxamide], the IC50 was 0.001 to 0.01 µM.

As for `CNC(=O)c1cn(-c2ccnc(Nc3ccc(N4CCNCC4)c(Cl)c3)n2)c2ccccc12` [Compound 103, 1-[2-(3-chloro-4-piperazin-1-yl-phenylamino)-pyrimidin-4-yl]-1H-indole-3-carboxmethylamide], the IC50 was 0.1 to 1 µM.

Regarding `NC(=O)c1cn(-c2nc(Nc3ccc(N4CCNCC4)c(F)c3)ncc2F)c2ccccc12` [Compound 41, 1-[5-fluoro-2-(3-fluoro-4-piperazin-1-yl-phenylamino)-pyrimidin-4-yl]-1H-indole-3-carboxamide], the IC50 lay in the range of 0.001 to 0.01 µM.

For the molecule `NC(=O)c1cn(-c2ccnc(Nc3ccc(OCCN4CCNCC4)cc3)n2)c2ccccc12` [Compound 22, 1-(2-{4-[2-(4-piperazin-1-yl)-ethoxy]-phenylamino]-pyrimidin-4-yl}-1H-indole-3-carboxamide], the IC50 was in the range of 0.01 to 0.1 µM.

Consider `COc1cc(Nc2ncc(Cl)c(-n3cc(C(N)=O)c4ccccc43)n2)ccc1N1CCNCC1` [Compound 43, 1-[5-chloro-2-(3-methoxy-4-piperazin-1-yl-phenylamino)-pyrimidin-4-yl]-1H-indole-3-carboxamide], for which the IC50 was less than 0.001 µM.

For `NC(=O)c1cn(-c2nc(Nc3cccc(N4CCN(C(=O)C5CCOCC5)CC4)c3)ncc2F)c2ccccc12` [Compound 166, 1-(5-Fluoro-2-{3-[4-(tetrahydro-pyran-4-carbonyl)-piperazin-1-yl]-phenylamino}-pyrimidin-4-yl)-1H-indole-3-carboxamide], the IC50 lay in the range of 0.01 to 0.1 µM.

Consider `CN(C)CCCN(C)c1ccc(Nc2nccc(-n3cc(C(N)=O)c4ccccc43)n2)cc1` [Compound 76, 1-(2-{4-[(3-dimethylamino-propyl)-methyl-amino]-phenylamino}-pyrimidin-4-yl)-1H-indole-3-carboxamide], for which the IC50 was in the range of 0.01 to 0.1 µM.

For the molecule `Cc1cnc(Nc2ccc(N3CCNCC3)cc2)nc1-n1cc(C(N)=O)c2ccccc21` [Compound 37, 1-[5-methyl-2-(4-piperazin-1-yl-phenylamino)-pyrimidin-4-yl]-1H-indole-3-carboxamide], the IC50 was 0.001 to 0.01 µM.

Consider `Cc1cc(Nc2ncc(F)c(-n3cc(C(N)=O)c4ccccc43)n2)ccc1N1CCN(C(C)C)CC1` [Compound 59, 1-{5-fluoro-2-[4-(4-isopropyl-piperazin-1-yl)-3-methyl-phenylamino]-pyrimidin-4-yl}-1H-indole-3-carboxamide], for which the 50% inhibitory concentration (IC50) lay within 0.001 to 0.01 µM.

`CN1CCN(c2cc(Nc3ncc(F)c(-n4cc(C(N)=O)c5ccccc54)n3)ccc2F)CC1` [Compound 116, 1-{5-fluoro-2-[4-fluoro-3-(4-methyl-piperazin-1-yl)-phenylamino]-pyrimidin-4-yl}-1H-indole-3-carboxamide]: the half-maximal inhibitory concentration (IC50) lay within 0.01 to 0.1 µM.

For `COc1cc(Nc2nccc(-n3cc(C(N)=O)c4ccccc43)n2)ccc1N(C)CCN1CCCC1` [Compound 91], the concentration for half-maximal inhibition (IC50) is 0.001 to 0.01 µM.

Take `NC(=O)c1cn(-c2ccnc(Nc3ccc(NCCN4CCCCC4)cc3)n2)c2ccccc12` [Compound 10, 1-{2-[4-(2-piperidin-1-yl-ethylamino)-phenylamino]-pyrimidin-4-yl}-1H-indole-3-carboxamide]: the IC50 is 0.01 to 0.1 µM.

Consider `CC(=O)N1CCN(c2cccc(Nc3ncc(F)c(-n4cc(C(N)=O)c5ccccc54)n3)c2)CC1` [Compound 165, 1-{2-[3-(4-acetyl-piperazin-1-yl)-phenylamino]-5-fluoro-pyrimidin-4-yl}-1H-indole-3-carboxamide], for which the IC50 is 0.01 to 0.1 µM.

On to `NC(=O)c1nn(-c2ccnc(Nc3cccc(N4CCNCC4)c3)n2)c2ccccc12` [Compound 138, 1-[2-(3-piperazin-1-yl-phenylamino)-pyrimidin-4-yl]-1H-indazole-3-carboxamide], for which the IC50 lay within 0.001 to 0.01 µM.
